Laboratory results as given in patent publication EP0497314A1, “Use of azapirones in attention deficit hyperactivity disorder” (Bristol-Myers Squibb Company, priority 1991, dated 1992).
Marks after values point to notes of the source that are not given here.

Columns and labels:
[1] = tested on: fronto-occipital cortex of the cat; assay: Quantitative EEG, fronto-occipital cat cortex, subcutaneous administration; type: in vivo, cats; conditions: in vivo
Description: This unique combination of activity may render buspirone useful in the treatment of childhood hyperkinesis which has been reported to respond to both selected phenothiazine and stimulant drugs. • (b) Adult mongrel female cats weighing 2.5-4.0 kg were implanted with EEG recording electrodes. Recording sites were as follows: fronto-occipital cortex, basal amygdala and ventral hippocampus.
Animals were individually held in canvas feline restraining bags for EEG recording. The EEG of each brain area was recorded on a separate channel. The instrumentation filtered each channel of EEG and analog data into five distinct frequency bands: Δ=0.5-3.5 Hz, ϑ=3.5-7.0 Hz, α=7-13 Hz, β=13-25 Hz and γ=25-40 Hz. The EEG analyzer then integrated the filtered waveforms and sent pulses to an associated computer at a rate proportional to the electrical energy of each band. Data collecting procedures were essentially the same as reported in Example 1. However, groups of six animals each were used and all drugs were administered subcutaneously in saline solution as their respective salts, but all dosages were calculated as the free base. Recording was started 30 minutes after injection to insure adequate drug absorption for peak activity.
Drug-induced EEG changes were determined by comparing the post-treatment data to the pre-treatment control in the same animal. Statistical analysis was performed on change from control, in instrument counts, using multiple Student-t-paired-comparison test with P≦0.05 (Table 2). However, for clarity data are also presented as percent change from control (Figures 3, 4 and 5).
The data in Table 2 are drug-induced changes resulting from the minimum and higher doses of each compound required to elicit the EEG profile characteristic of that particular drug.

rabbit cortex = assay: Quantitative EEG, rabbit cortex, intravenous administration; type: in vivo, rabbits; conditions: rabbit, in vivo
Protocol: At least 2 weeks were allowed for recovery before beginning experimentation.
Groups of four animals each were individually restrained and connected to an EEG amplifier and frequency analyzer. The EEG of each animal was recorded on a separate channel. The instrumentation filtered each channel of EEG analog data into five distinct frequency bands: Δ=0.5-3.5 Hz, ϑ=3.5-7.0 Hz, α=7-13 Hz, β=13-25 Hz and γ=25-40 Hz. The EEG analyzer then integrated the filtered waveforms and sent pulses to an associated computer at a rate proportional to the electrical energy of each band. Thus, one computer print-out provided a cortical EEG profile for the entire group of four rabbits.
Data from a one-hour recording period were collected in four 15-minute periods, which provided additional information concerning both onset and time of peak effect of drug activity. However, in this report only the mean activity of the four data collection periods was considered since onset of drug activity was immediate and duration of action was at least one hour for all drugs studied. Drug-induced EEG changes were determined by comparing the post-treatment print-out to the pretreatment control in the same animal and statistical analysis was performed on change from control, in counts, using multiple Student-t paired-comparison tests with p≦0.05 (Table 1). However, for clarity data are also presented as percent change from control (Figures 1 and 2).
All drugs were administered intravenously in saline solution as their respective salts and all dosage calculations were based on the free base. Recording was started immediately after injection and animals were not used more often than once per week. Initial doses were reduced geometrically until a no-effect dose was determined for each drug. However, only the "no-effect" data and the data generated from the next higher dose are presented in this report since the shape of the EEG profile is not dose-related, as opposed to the magnitude of the response which is dose-related.

C[C@H](N)Cc1ccccc1 [Dextroamphetamine 1/2H2SO4, dextroamphetamine]
the minimum dose required to produce the EEG profile characteristic of that particular drug [1]: 0.125‡ mg/kg, s.c. | the no-effect dose [1]: 0.0625† mg/kg, s.c. | relative potency by comparing minimal doses required to elicit EEG profiles ([1]; sc): approximately twice as potent as buspirone and methylphenidate | group percent change in electrical energy from pre-drug control, Δ band ([1]; sc, 0.0625 mg/kg): -18 ± 6 (-8) percent | group percent change in electrical energy from pre-drug control, α band ([1]; sc, 0.0625 mg/kg): -12 ± 8 (-8) percent | group percent change in electrical energy from pre-drug control, β band ([1]; sc, 0.0625 mg/kg): +1 ± 5 (+1) percent | group percent change in electrical energy from pre-drug control, γ band ([1]; sc, 0.0625 mg/kg): +2 ± 3 (+2) percent | group percent change in electrical energy from pre-drug control, θ band ([1]; sc, 0.0625 mg/kg): -15 ± 7 (-10) percent | mean change ± S.E. in electrical energy from pre-drug control, Δ band ([1]; sc, 0.0625 mg/kg): -18 ± 6 (-8) instrument counts | mean change ± S.E. in electrical energy from pre-drug control, α band ([1]; sc, 0.0625 mg/kg): -12 ± 8 (-8) instrument counts | mean change ± S.E. in electrical energy from pre-drug control, β band ([1]; sc, 0.0625 mg/kg): +1 ± 5 (+1) instrument counts | mean change ± S.E. in electrical energy from pre-drug control, γ band ([1]; sc, 0.0625 mg/kg): +2 ± 3 (+2) instrument counts | mean change ± S.E. in electrical energy from pre-drug control, θ band ([1]; sc, 0.0625 mg/kg): -15 ± 7 (-10) instrument counts | group percent change in electrical energy from pre-drug control, Δ band ([1]; sc, 0.125 mg/kg): -85 ± 21 (-35) percent | group percent change in electrical energy from pre-drug control, α band ([1]; sc, 0.125 mg/kg): -29 ± 9 (-26) percent | group percent change in electrical energy from pre-drug control, β band ([1]; sc, 0.125 mg/kg): -3 ± 4 (-3) percent | group percent change in electrical energy from pre-drug control, γ band ([1]; sc, 0.125 mg/kg): +8 ± 2 (+12) percent | group percent change in electrical energy from pre-drug control, θ band ([1]; sc, 0.125 mg/kg): -44 ± 8 (-33) percent | mean change ± S.E. in electrical energy from pre-drug control, Δ band ([1]; sc, 0.125 mg/kg): -85 ± 21 (-35) instrument counts | mean change ± S.E. in electrical energy from pre-drug control, α band ([1]; sc, 0.125 mg/kg): -29 ± 9 (-26) instrument counts | mean change ± S.E. in electrical energy from pre-drug control, β band ([1]; sc, 0.125 mg/kg): -3 ± 4 (-3) instrument counts | mean change ± S.E. in electrical energy from pre-drug control, γ band ([1]; sc, 0.125 mg/kg): +8 ± 2 (+12) instrument counts | mean change ± S.E. in electrical energy from pre-drug control, θ band ([1]; sc, 0.125 mg/kg): -44 ± 8 (-33) instrument counts | group percent change in electrical energy from pre-drug control, Δ band ([1]; sc, 0.5 mg/kg): -78 ± 32 (-33) percent | group percent change in electrical energy from pre-drug control, α band ([1]; sc, 0.5 mg/kg): -71 ± 11 (-51) percent | group percent change in electrical energy from pre-drug control, β band ([1]; sc, 0.5 mg/kg): -18 ± 9 (-15) percent | group percent change in electrical energy from pre-drug control, γ band ([1]; sc, 0.5 mg/kg): +18 ± 4 (+25) percent | group percent change in electrical energy from pre-drug control, θ band ([1]; sc, 0.5 mg/kg): -76 ± 13 (-51) percent | mean change ± S.E. in electrical energy from pre-drug control, Δ band ([1]; sc, 0.5 mg/kg): -78 ± 32 (-33) instrument counts | mean change ± S.E. in electrical energy from pre-drug control, α band ([1]; sc, 0.5 mg/kg): -71 ± 11 (-51) instrument counts | mean change ± S.E. in electrical energy from pre-drug control, β band ([1]; sc, 0.5 mg/kg): -18 ± 9 (-15) instrument counts | mean change ± S.E. in electrical energy from pre-drug control, γ band ([1]; sc, 0.5 mg/kg): +18 ± 4 (+25) instrument counts | mean change ± S.E. in electrical energy from pre-drug control, θ band ([1]; sc, 0.5 mg/kg): -76 ± 13 (-51) instrument counts | group percent change in electrical energy from pre-drug control, Δ band ([1]; sc, 4 mg/kg): +64 ± 27 (+29) percent | group percent change in electrical energy from pre-drug control, α band ([1]; sc, 4 mg/kg): -44 ± 13 (-35) percent | group percent change in electrical energy from pre-drug control, β band ([1]; sc, 4 mg/kg): -6 ± 9 (-5) percent | group percent change in electrical energy from pre-drug control, γ band ([1]; sc, 4 mg/kg): +50 ± 8 (+63) percent | group percent change in electrical energy from pre-drug control, θ band ([1]; sc, 4 mg/kg): -34 ± 13 (-24) percent | mean change ± S.E. in electrical energy from pre-drug control, Δ band ([1]; sc, 4 mg/kg): +64 ± 27 (+29) instrument counts | mean change ± S.E. in electrical energy from pre-drug control, α band ([1]; sc, 4 mg/kg): -44 ± 13 (-35) instrument counts | mean change ± S.E. in electrical energy from pre-drug control, β band ([1]; sc, 4 mg/kg): -6 ± 9 (-5) instrument counts | mean change ± S.E. in electrical energy from pre-drug control, γ band ([1]; sc, 4 mg/kg): +50 ± 8 (+63) instrument counts | mean change ± S.E. in electrical energy from pre-drug control, θ band ([1]; sc, 4 mg/kg): -34 ± 13 (-24) instrument counts | the minimum dose required to produce the EEG profile characteristic of that particular drug (rabbit cortex): 0.25‡ mg/kg, i.v. | the no-effect dose (rabbit cortex): 0.125† mg/kg, i.v. | relative potency by comparing minimal doses required to elicit EEG profiles (rabbit cortex; iv): approximately twice as potent as buspirone | group percent change in electrical energy from pre-drug control, Δ band (rabbit cortex; iv, 0.125 mg/kg): +4 ± 17 (+2) percent | group percent change in electrical energy from pre-drug control, α band (rabbit cortex; iv, 0.125 mg/kg): 0 ± 9 (0) percent | group percent change in electrical energy from pre-drug control, β band (rabbit cortex; iv, 0.125 mg/kg): +2 ± 6 (+1) percent | group percent change in electrical energy from pre-drug control, γ band (rabbit cortex; iv, 0.125 mg/kg): +1 ± 1 (+1) percent | group percent change in electrical energy from pre-drug control, θ band (rabbit cortex; iv, 0.125 mg/kg): -9 ± 6 (-5) percent | mean change ± S.E. in electrical energy from pre-drug control, Δ band (rabbit cortex; iv, 0.125 mg/kg): +4 ± 17 (+2) instrument counts | mean change ± S.E. in electrical energy from pre-drug control, α band (rabbit cortex; iv, 0.125 mg/kg): 0 ± 9 (0) instrument counts | mean change ± S.E. in electrical energy from pre-drug control, β band (rabbit cortex; iv, 0.125 mg/kg): +2 ± 6 (+1) instrument counts | mean change ± S.E. in electrical energy from pre-drug control, γ band (rabbit cortex; iv, 0.125 mg/kg): +1 ± 1 (+1) instrument counts | mean change ± S.E. in electrical energy from pre-drug control, θ band (rabbit cortex; iv, 0.125 mg/kg): -9 ± 6 (-5) instrument counts | group percent change in electrical energy from pre-drug control, α band (rabbit cortex; iv, 0.25 mg/kg): +27 ± 9 (-22) percent | group percent change in electrical energy from pre-drug control, β band (rabbit cortex; iv, 0.25 mg/kg): -21 ± 6 (-20) percent | group percent change in electrical energy from pre-drug control, γ band (rabbit cortex; iv, 0.25 mg/kg): -4 ± 1 (-5) percent | group percent change in electrical energy from pre-drug control, θ band (rabbit cortex; iv, 0.25 mg/kg): -35 ± 9 (-25) percent | mean change ± S.E. in electrical energy from pre-drug control, Δ band (rabbit cortex; iv, 0.25 mg/kg): -64 ± 19 (-33) instrument counts | mean change ± S.E. in electrical energy from pre-drug control, β band (rabbit cortex; iv, 0.25 mg/kg): -21 ± 6 (-20) instrument counts | mean change ± S.E. in electrical energy from pre-drug control, γ band (rabbit cortex; iv, 0.25 mg/kg): -4 ± 1 (-5) instrument counts | mean change ± S.E. in electrical energy from pre-drug control, θ band (rabbit cortex; iv, 0.25 mg/kg): -35 ± 9 (-25) instrument counts
